For assay [1], the system named is activated CD4+ human T-cells (IL-2). Description: IL-2 inhibition in supernatants from activated CD4+ human T-cells (cisbio HTRF). The assay is classed as cell-based. The conditions noted are these: T-cell; CD3/CD28-activated CD4+ human T cells, ImmunoCult stimulation 20 to 24 hrs; geometric mean of count n. In short, it runs like this:
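Primary human CD4+ T cells activated with CD3/CD28 for 3 days and expanded to 7-9 days total, plated at 30,000 cells/well. Cells preincubated 15 min with compound, then stimulated with ImmunoCult (1:50 final) for 20-24 h at 37° C. Supernatant IL-2 measured by HTRF (665/615 nm); IC50 from four-parameter logistic fit.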

The target in assay [2] is IL-2-Inducible T-Cell Kinase (ITK) (Homo sapiens (Human), UniProt Q08881). Description: ITK enzyme assay (IL-2-inducible T-cell kinase activity). It is filed as biochemical. The conditions noted are these: geometric mean of count n. In short, it runs like this:
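Full-length N-Flag/C-His human ITK, pre-incubated 30 min at RT with compound. Reaction in HEPES pH 7.5 buffer with MgCl2, glutathione, gelatin and Brij-35, started with BTK peptide substrate, 60 min at RT. EDTA stop, PT66/APC TR-FRET detection overnight; IC50 fitted by four-parameter logistic.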

Sequence of IL-2-Inducible T-Cell Kinase (ITK) (Q08881 whole entry): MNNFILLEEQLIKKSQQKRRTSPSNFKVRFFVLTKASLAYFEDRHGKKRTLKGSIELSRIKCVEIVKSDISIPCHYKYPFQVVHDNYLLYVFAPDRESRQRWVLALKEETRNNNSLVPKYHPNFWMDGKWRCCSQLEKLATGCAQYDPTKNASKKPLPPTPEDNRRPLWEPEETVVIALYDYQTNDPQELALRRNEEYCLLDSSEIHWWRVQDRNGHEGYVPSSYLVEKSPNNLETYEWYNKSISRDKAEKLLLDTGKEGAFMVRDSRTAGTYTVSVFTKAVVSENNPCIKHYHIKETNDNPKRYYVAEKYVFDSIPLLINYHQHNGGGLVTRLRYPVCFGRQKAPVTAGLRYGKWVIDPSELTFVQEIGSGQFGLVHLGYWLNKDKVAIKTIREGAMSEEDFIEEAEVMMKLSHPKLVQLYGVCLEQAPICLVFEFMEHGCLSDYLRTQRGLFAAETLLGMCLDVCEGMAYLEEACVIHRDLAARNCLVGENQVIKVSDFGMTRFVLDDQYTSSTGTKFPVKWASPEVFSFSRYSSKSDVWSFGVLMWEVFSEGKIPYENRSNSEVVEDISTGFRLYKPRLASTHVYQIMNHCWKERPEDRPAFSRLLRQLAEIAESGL

Consider `CC(C)CCC(=O)N(C)c1cnc2[nH]c(-c3n[nH]c4c3CCC(C)(C)C4)nc2c1` [Example 106, N-(2-(6,6-Dimethyl-4,5,6,7-tetrahydro-1H-indazol-3-yl)-3H-imidazo[4,5-b]pyridin-6-yl)-N,4-dimethylpentanamide], for which the 50% inhibitory concentration (IC50) in assay [1] was 1090 nM; in assay [2], 245 nM.

`CCCC(=O)N(C)c1cnc2[nH]c(-c3n[nH]c4c3CCC(C)(C)C4)nc2c1` [Example 108, N-(2-(6,6-Dimethyl-4,5,6,7-tetrahydro-1H-indazol-3-yl)-3H-imidazo[4,5-b]pyridin-6-yl)-N-methylbutyramide]: the half-maximal inhibitory concentration (IC50) in assay [1] is 367 nM; in assay [2] it was 100 nM.

As for `CC(C)C(=O)N(C)c1cnc2[nH]c(-c3n[nH]c4c3CCC(C)(C)C4)nc2c1` [Example 103, N-(2-(6,6-Dimethyl-4,5,6,7-tetrahydro-1H-indazol-3-yl)-3H-imidazo[4,5-b]pyridin-6-yl)-N-methylisobutyramide], the figures for the IC50 in assay [1] and in assay [2] were 392 nM and 104 nM, respectively.

Regarding `CN(C(=O)CC1CCOCC1)c1cnc2nc(-c3n[nH]c4c3C[C@@H]3C[C@]3(C)C4)[nH]c2c1` [Example 52, N-Methyl-N-(2-((4aS,5aR)-5a-methyl-1,4,4a,5,5a,6-hexahydrocyclopropa[f]indazol-3-yl)-1H-imidazo[4,5-b]pyridin-6-yl)-2-(tetrahydro-2H-pyran-4-yl)acetamide], the IC50 in assay [1] stood at 189 nM; in assay [2] it was 51 nM.

Turning to `CN(C(=O)CC(C)(C)C(F)F)c1cnc2[nH]c(-c3n[nH]c4c3CCC(C)(C)C4)nc2c1` [Example 99, N-(2-(6,6-Dimethyl-4,5,6,7-tetrahydro-1H-indazol-3-yl)-3H-imidazo[4,5-b]pyridin-6-yl)-4,4-difluoro-N,3,3-trimethylbutanamide], the figures for the IC50 in assay [1] and in assay [2] were 233 nM and 59 nM, respectively.

Turning to `CC(=O)N(C)c1cnc2[nH]c(-c3n[nH]c4c3CCC(C)(C)C4)nc2c1` [Example 20, N-(2-(6,6-Dimethyl-4,5,6,7-tetrahydro-1H-indazol-3-yl)-3H-imidazo[4,5-b]pyridin-6-yl)-N-methylacetamide], the concentration for half-maximal inhibition (IC50) amounted to 1200 nM in assay [1] and 231 nM in assay [2].

For `CN(C(=O)C12CC(C1)C2)c1cnc2nc(-c3n[nH]c4c3C[C@@H]3C[C@]3(C)C4)[nH]c2c1` [Example 85, N-Methyl-N-(2-((4aS,5aR)-5a-methyl-1,4,4a,5,5a,6-hexahydrocyclopropa[f]indazol-3-yl)-1H-imidazo[4,5-b]pyridin-6-yl)bicyclo[1.1.1]pentane-1-carboxamide], the IC50 was determined as 1220 nM in assay [1] and 91 nM in assay [2].

For `CC[C@H](C)C(=O)N(C)c1cnc2[nH]c(-c3n[nH]c4c3CCC(C)(C)C4)nc2c1` [Example 92, (S)-N-(2-(6,6-Dimethyl-4,5,6,7-tetrahydro-1H-indazol-3-yl)-3H-imidazo[4,5-b]pyridin-6-yl)-N,2-dimethylbutanamide], the IC50 in assay [1] is over 10000 nM; in assay [2] it was 698 nM.

In the case of `CN(C(=O)C(F)C1CCOCC1)c1cnc2nc(-c3n[nH]c4c3C[C@@H]3C[C@]3(C)C4)[nH]c2c1` (stereo partly drawn) [Example 11, 2-Fluoro-N-methyl-N-(2-((4aS,5aR)-5a-methyl-1,4,4a,5,5a,6-hexahydrocyclopropa[f]indazol-3-yl)-1H-imidazo[4,5-b]pyridin-6-yl)-2-(tetrahydro-2H-pyran-4-yl)acetamide], the half-maximal inhibitory concentration (IC50) in assay [1] turned out to be 534 nM; in assay [2], 72 nM.

In the case of `COCCOc1nc2[nH]c(-c3n[nH]c4c3C[C@@H]3C[C@]3(C)C4)nc2cc1N(C)C(=O)[C@@H](C)N1CCOCC1` [Example 39, (R)-N-(5-(2-Methoxyethoxy)-2-((4aS,5aR)-5a-methyl-1,4,4a,5,5a,6-hexahydrocyclopropa[f]indazol-3-yl)-3H-imidazo[4,5-b]pyridin-6-yl)-N-methyl-2-morpholinopropanamide], the values for the IC50 in assay [1] and in assay [2] were 461 nM and 110 nM, respectively.

Turning to `CC(C(=O)N(C)c1cnc2[nH]c(-c3n[nH]c4c3C[C@@H]3C[C@]3(C)C4)nc2c1)C1CCOCC1` (stereo partly drawn) [Example 9, N-Methyl-N-(2-((4aS,5aR)-5a-methyl-1,4,4a,5,5a,6-hexahydrocyclopropa[f]indazol-3-yl)-3H-imidazo[4,5-b]pyridin-6-yl)-2-(tetrahydro-2H-pyran-4-yl)propanamide], the IC50 came to 147 nM in assay [1] and 24 nM in assay [2].

With `CN(C(=O)C1(C)CC(F)(F)C1)c1cnc2nc(-c3n[nH]c4c3C[C@@H]3C[C@]3(C)C4)[nH]c2c1` [Example 66, 3,3-Difluoro-N,1-dimethyl-N-(2-((4aS,5aR)-5a-methyl-1,4,4a,5,5a,6-hexahydrocyclopropa[f]indazol-3-yl)-1H-imidazo[4,5-b]pyridin-6-yl)cyclobutane-1-carboxamide], the results for the half-inhibitory concentration (IC50) in assay [1] and in assay [2] were 292 nM and 92 nM, respectively.

For `CCC1(C(=O)N(C)c2cnc3nc(-c4n[nH]c5c4C[C@@H]4C[C@]4(C)C5)[nH]c3c2)CCOCC1` [Example 65, 4-Ethyl-N-methyl-N-(2-((4aS,5aR)-5a-methyl-1,4,4a,5,5a,6-hexahydrocyclopropa[f]indazol-3-yl)-1H-imidazo[4,5-b]pyridin-6-yl)tetrahydro-2H-pyran-4-carboxamide], the IC50 in assay [1] was 568 nM; in assay [2] it was 150 nM.

Consider `C[C@@H](C(=O)N(C)c1cnc2[nH]c(-c3n[nH]c4c3C[C@@H]3C[C@]3(C)C4)nc2c1)N1CC2CC(C1)O2` (single isomer, unassigned) [Example 41], for which the concentration for half-maximal inhibition (IC50) in assay [1] turned out to be 600 nM; in assay [2] it was 116 nM.

As for `CN(C(=O)C(F)(F)C1CCOCC1)c1cnc2nc(-c3n[nH]c4c3CCC(C)(C)C4)[nH]c2c1` [Example 5, N-(2-(6,6-Dimethyl-4,5,6,7-tetrahydro-1H-indazol-3-yl)-1H-imidazo[4,5-b]pyridin-6-yl)-2,2-difluoro-N-methyl-2-(tetrahydro-2H-pyran-4-yl)acetamide], the IC50 in assay [1] was 375 nM; in assay [2], 14 nM.

`CN(C(=O)C1CCCC1)c1cnc2nc(-c3n[nH]c4c3C[C@@H]3C[C@]3(C)C4)[nH]c2c1` [Example 81, N-Methyl-N-(2-((4aS,5aR)-5a-methyl-1,4,4a,5,5a,6-hexahydrocyclopropa[f]indazol-3-yl)-1H-imidazo[4,5-b]pyridin-6-yl)cyclopentanecarboxamide]: the results for the IC50 in assay [1] and in assay [2] were 182 nM and 21 nM, respectively.

In the case of `CC(C(=O)N(C)c1cnc2[nH]c(-c3n[nH]c4c3C[C@@H]3C[C@]3(C)C4)nc2c1)N1C2COCC1C2` (stereo partly drawn) [Example 119, 2-(3-Oxa-6-azabicyclo[3.1.1]heptan-6-yl)-N-methyl-N-(2-((4aS,5aR)-5a-methyl-1,4,4a,5,5a,6-hexahydrocyclopropa[f]indazol-3-yl)-3H-imidazo[4,5-b]pyridin-6-yl)propanamide], the 50% inhibitory concentration (IC50) in assay [1] is 4210 nM; in assay [2], 470 nM.

In the case of `CC[C@H](C)C(=O)N(C)c1cnc2nc(-c3n[nH]c4c3C[C@@H]3C[C@]3(C)C4)[nH]c2c1` [Example 83, (S)-N,2-Dimethyl-N-(2-((4aS,5aR)-5a-methyl-1,4,4a,5,5a,6-hexahydrocyclopropa[f]indazol-3-yl)-1H-imidazo[4,5-b]pyridin-6-yl)butanamide], the concentration for half-maximal inhibition (IC50) in assay [1] turned out to be 371 nM; in assay [2], 47 nM.

On to `CN(C(=O)C1(C)CCCCO1)c1cnc2[nH]c(-c3n[nH]c4c3CCC(C)(C)C4)nc2c1` (stereo not drawn) [Example 112, N-(2-(6,6-Dimethyl-4,5,6,7-tetrahydro-1H-indazol-3-yl)-3H-imidazo[4,5-b]pyridin-6-yl)-N,2-dimethyltetrahydro-2H-pyran-2-carboxamide], for which the IC50 in assay [1] came out at 895 nM; in assay [2], 234 nM.

Take `COc1nc2[nH]c(-c3n[nH]c4c3C[C@@H]3C[C@]3(C)C4)nc2cc1N(C)C(=O)CN1CCOCC1` [Example 35, N-(5-Methoxy-2-((4aS,5aR)-5a-methyl-1,4,4a,5,5a,6-hexahydrocyclopropa[f]indazol-3-yl)-3H-imidazo[4,5-b]pyridin-6-yl)-N-methyl-2-morpholinoacetamide]: the figures for the IC50 in assay [1] and in assay [2] were 462 nM and 143 nM, respectively.

Regarding `CN(C(=O)C1(C)CCOCC1)c1cnc2[nH]c(-c3n[nH]c4c3CCC(C)(C)C4)nc2c1` [Example 109, N-(2-(6,6-Dimethyl-4,5,6,7-tetrahydro-1H-indazol-3-yl)-3H-imidazo[4,5-b]pyridin-6-yl)-N,4-dimethyltetrahydro-2H-pyran-4-carboxamide], the IC50 worked out at 908 nM in assay [1] and 421 nM in assay [2].

Consider `CN(C(=O)C1(C)CC(F)(F)C1)c1cnc2[nH]c(-c3n[nH]c4c3CCC(C)(C)C4)nc2c1` [Example 100, N-(2-(6,6-Dimethyl-4,5,6,7-tetrahydro-1H-indazol-3-yl)-3H-imidazo[4,5-b]pyridin-6-yl)-3,3-difluoro-N,1-dimethylcyclobutane-1-carboxamide], for which the IC50 in assay [1] worked out at 682 nM; in assay [2], 104 nM.

With `CC(C)C(=O)N(C)CC(=O)N(C)c1cnc2nc(-c3n[nH]c4c3C[C@@H]3C[C@]3(C)C4)[nH]c2c1` [Example 78, N-Methyl-N-(2-(methyl(2-((4aS,5aR)-5a-methyl-1,4,4a,5,5a,6-hexahydrocyclopropa[f]indazol-3-yl)-1H-imidazo[4,5-b]pyridin-6-yl)amino)-2-oxoethyl)isobutyramide], the IC50 was 552 nM in assay [1] and 35 nM in assay [2].

In the case of `CC(C)CC(=O)N(C)c1cnc2nc(-c3n[nH]c4c3C[C@@H]3C[C@]3(C)C4)[nH]c2c1` [Example 72, N,3-Dimethyl-N-(2-((4aS,5aR)-5a-methyl-1,4,4a,5,5a,6-hexahydrocyclopropa[f]indazol-3-yl)-1H-imidazo[4,5-b]pyridin-6-yl)butanamide], the IC50 in assay [1] came out at 248 nM; in assay [2] it was 39 nM.

The IC50 is the concentration that gives 50% inhibition. High values mean weaker potency in that assay, low ones greater potency in that assay.
